Measurements taken from patent US8669264B2, “Rutaecarpine derivatives for activating CYP1A2 in a subject” (Linnet Biopharmaceuticals, Inc., priority 2011, dated 2014).

Test system: CYP1A2
Assay: MEROD assay in live Hepa1c1c7 cells (CYP1A2 induction)
Type: cell-based, mouse
Details: Hepa1c1c7 cells incubated with 10 μM compound
From the text: FIG. 1 illustrates how caffeine is primarily metabolized to paraxanthine via CYP1A2 enzyme in a human, according to some embodiments. The MEROD (methoxyresorufin-O-demethylase) assay measures the activity of the enzyme (CYP1A2) that converts methoxyresorufin (probe substrate) to resorufin (demethylation) in the presence of NADPH. The resulting resorufin concentration can be measured using a fluorescence reader by setting the excitation and emission wavelengths at 544 and 590 nm, respectively.
For MEROD assay in live cells, Hepa1c1c7 cells were cultured in either 6-well or 24-well-plates. For the 24-well plate experiment, after confluent cells were incubated for approximately 20 hours with either resorufin, nitro-resorufin, chloro-resorufin, 3-MC or DMSO (in triplicates), culture media was removed and 180 μL fresh culture media containing […] methoxyresorufin was added per well. After 1 hour incubation at 37° C., 100 μL aliquot was taken from each well and the formation of resorufin was measured by fluorescence. […] After 5 hours incubation at 37° C., 100 μL aliquot was taken from each well, centrifuged at 12,000 g at RT for ˜5 min and the supernatants were placed into wells of a 96-well fluorescence plate and the formation of resorufin was measured by fluorescence.

formation of resorufin from live cells (MEROD): no marked difference
SMILES: O=c1c2ccc(Cl)cc2nc2n1CCc1c-2[nH]c2ccccc12 [chloro-rutaecarpine]
